Key:
[1] = in vivo; cited from earlier work
[2] = 35 day observation
Experimental: Before treatment, body weight was determined for all the animals. During the course of observation period of 35 days, the animals were followed up twice daily for symptoms of any adverse effect and were physically examined for the sign of morbidity throughout the study period.
On day 0, 15 and 35, all the animals were weighed, and their weights were recorded.

[3] = rat models; cited from earlier work
[4] = Minocycline forced degradation (acid, base, H2O2, light) by HPLC; assay type: physicochemical
Source text: Measuring the drug molecule's stability is essential as it directly impacts the formulation strategy when designing the drug-loaded nanoparticle.

[5] = In vivo toxicity: gross observable behavioral effects (Irwin); parameters: species or system rat; settings: 35 days

Structure (SMILES) | time to disappearance from the cochlea [1] | body weight versus saline treated control group [2] | half-life [3] | recovery at 1 h, 100 μg/mL ([4]; 1 M HCl solution, HCl (1 M, 1 h RT)) | recovery at 1 h, 100 μg/mL ([4]; 1 M NaOH solution, NaOH (1 M, 1 h RT)) | recovery at 24 h, 100 μg/mL ([4]; UV Light (24 h light exposure)) | gross observable behavioral parameters (alertness, visual placing, passivity, spontaneous motor activity, touch response) [5]
C[C@H]1C[C@H]2[C@@H]3CCC4=CC(=O)C=C[C@]4(C)[C@@]3(F)[C@@H](O)C[C@]2(C)[C@@]1(O)C(=O)COP(=O)(O)O [free betamethasone phosphate, betamethasone phosphate] | ≤ 12 h | – | – | – | – | – | –
CN(C)c1ccc(O)c2c1C[C@H]1C[C@H]3[C@H](N(C)C)C(O)=C(C(N)=O)C(=O)[C@@]3(O)C(O)=C1C2=O [minocycline, Minocycline] | – | no reduction in body weight | 2 to 3 h | 88.9% | 74% | 98.54 ± 0.71% | mild changes in a few behavioral parameters

Source: patent US12329765B2, “Targeted nanoparticle for the treatment of traumatic brain injury and other CNS diseases” (priority 2021, dated 2025)
